# In ChEMBL document CHEMBL3885861, “Open TG-GATES”:
# Species: Rattus norvegicus
# Test: Open TG-GATES - Regimen: Single
# Assay type: toxicity, organism-based, Sprague-Dawley
# Set-up: regimen Single, gender Male, age 6 weeks
# Settings: in vivo, po, 100 mg/kg, route gavage, dose level Middle; for APTT / Bas / Eos / Fbg / Hb / Ht / Lym / MCH / MCHC / MCV / Mono / Neu / PT / Plat / RBC / Ret / WBC: tissue Blood; for KIDNEY_L / KIDNEY_R / KIDNEY_TOTAL: tissue Kidney; for LIVER: tissue Liver; for A/G / ALP / ALT / AST / BUN / CRE / Ca / Cl / DBIL / GLC / IP / K / LDH / Na / PL / RALB / TBIL / TC / TG / TP / gamma-GTP: tissue Plasma
compound,measurement,setting,value
C[C@]12CCC(=O)C=C1CC[C@@H]1[C@@H]2CC[C@@]2(C)[C@H]1CC[C@]2(C)O [METHYLTESTOSTERONE],TERMINAL_BW,3 h,202.8 g
same,APTT,3 h,15.1 s
same,Bas,3 h,0%
same,Eos,3 h,1%
same,Fbg,3 h,298.8 mg/dL
same,Hb,3 h,12.9 g/dL
same,Ht,3 h,37.9%
same,Lym,3 h,72.2%
same,MCH,3 h,22.2 pg
same,MCHC,3 h,34.1%
same,MCV,3 h,65 fL
same,Mono,3 h,4.2%
same,Neu,3 h,22.4%
same,PT,3 h,13.1 s
same,Plat,3 h,111.5 x10_4/uL
same,RBC,3 h,582.8 x10_4/ul
same,Ret,3 h,8.9%
same,WBC,3 h,65.4 x10_2/uL
same,KIDNEY_L,3 h,0.9 g
same,KIDNEY_R,3 h,0.9 g
same,KIDNEY_TOTAL,3 h,1.8 g
same,LIVER,3 h,9.3 g
same,A/G,3 h,0.9
same,ALP,3 h,1276.2 IU/L
same,ALT,3 h,45.6 IU/L
same,AST,3 h,74 IU/L
same,BUN,3 h,11 mg/dL
same,CRE,3 h,0.2 mg/dL
same,Ca,3 h,11 mg/dL
same,Cl,3 h,106.2 meq/L
same,DBIL,3 h,0.01 mg/dL
same,GLC,3 h,184.8 mg/dL
same,IP,3 h,9.6 mg/dL
same,K,3 h,4.3 meq/L
same,LDH,3 h,73.8 IU/L
same,Na,3 h,141.2 meq/L
same,PL,3 h,136.2 mg/dL
same,RALB,3 h,2.5 g/dL
same,TBIL,3 h,0.042 mg/dL
same,TC,3 h,74 mg/dL
same,TG,3 h,63 mg/dL
same,TP,3 h,5.4 g/dL
same,gamma-GTP,3 h,1 IU/L
same,TERMINAL_BW,6 h,202.3 g
same,APTT,6 h,16.9 s
same,Bas,6 h,0%
same,Eos,6 h,1%
same,Fbg,6 h,274.4 mg/dL
same,Hb,6 h,13 g/dL
same,Ht,6 h,37.9%
same,Lym,6 h,74.4%
same,MCH,6 h,21.5 pg
same,MCHC,6 h,34.3%
same,MCV,6 h,62.6 fL
same,Mono,6 h,3.6%
same,Neu,6 h,20.8%
same,PT,6 h,13.4 s
same,Plat,6 h,103.9 x10_4/uL
same,RBC,6 h,606.6 x10_4/ul
same,Ret,6 h,8.3%
same,WBC,6 h,68.3 x10_2/uL
same,KIDNEY_L,6 h,0.9 g
same,KIDNEY_R,6 h,0.9 g
same,KIDNEY_TOTAL,6 h,1.8 g
same,LIVER,6 h,8.3 g
same,A/G,6 h,0.9
same,ALP,6 h,1515.6 IU/L
same,ALT,6 h,38 IU/L
same,AST,6 h,75.6 IU/L
same,BUN,6 h,9.4 mg/dL
same,CRE,6 h,0.2 mg/dL
same,Ca,6 h,10.7 mg/dL
same,Cl,6 h,107.4 meq/L
same,DBIL,6 h,0.014 mg/dL
same,GLC,6 h,181.6 mg/dL
same,IP,6 h,9.8 mg/dL
same,K,6 h,4.3 meq/L
same,LDH,6 h,56 IU/L
same,Na,6 h,141.2 meq/L
same,PL,6 h,126.4 mg/dL
same,RALB,6 h,2.5 g/dL
same,TBIL,6 h,0.048 mg/dL
same,TC,6 h,64 mg/dL
same,TG,6 h,49.4 mg/dL
same,TP,6 h,5.3 g/dL
same,gamma-GTP,6 h,1.2 IU/L
same,TERMINAL_BW,9 h,203.2 g
same,APTT,9 h,16.2 s
same,Bas,9 h,0%
same,Eos,9 h,1%
same,Fbg,9 h,296 mg/dL
same,Hb,9 h,13.2 g/dL
same,Ht,9 h,38.4%
same,Lym,9 h,76.8%
same,MCH,9 h,21.5 pg
same,MCHC,9 h,34.3%
same,MCV,9 h,62.9 fL
same,Mono,9 h,2.8%
same,Neu,9 h,18.8%
same,PT,9 h,13.5 s
same,Plat,9 h,112.3 x10_4/uL
same,RBC,9 h,611.6 x10_4/ul
same,Ret,9 h,8.1%
same,WBC,9 h,69 x10_2/uL
same,KIDNEY_L,9 h,0.9 g
same,KIDNEY_R,9 h,0.8 g
same,KIDNEY_TOTAL,9 h,1.7 g
same,LIVER,9 h,8.1 g
same,A/G,9 h,0.9
same,ALP,9 h,1516.6 IU/L
same,ALT,9 h,37.8 IU/L
same,AST,9 h,70.2 IU/L
same,BUN,9 h,8.2 mg/dL
same,CRE,9 h,0.2 mg/dL
same,Ca,9 h,10.5 mg/dL
same,Cl,9 h,107.6 meq/L
same,DBIL,9 h,0.016 mg/dL
same,GLC,9 h,177.6 mg/dL
same,IP,9 h,10.4 mg/dL
same,K,9 h,4.3 meq/L
same,LDH,9 h,69.4 IU/L
same,Na,9 h,141.8 meq/L
same,PL,9 h,119.2 mg/dL
same,RALB,9 h,2.5 g/dL
same,TBIL,9 h,0.046 mg/dL
same,TC,9 h,53.6 mg/dL
same,TG,9 h,89.8 mg/dL
same,TP,9 h,5.3 g/dL
same,gamma-GTP,9 h,1.2 IU/L
same,TERMINAL_BW,24 h,205.5 g
same,APTT,24 h,16.9 s
same,Bas,24 h,0%
same,Eos,24 h,1%
same,Fbg,24 h,278.2 mg/dL
same,Hb,24 h,13.1 g/dL
same,Ht,24 h,38.5%
same,Lym,24 h,77.6%
same,MCH,24 h,21.5 pg
same,MCHC,24 h,34.1%
same,MCV,24 h,62.9 fL
same,Mono,24 h,3%
same,Neu,24 h,18.2%
same,PT,24 h,13.3 s
same,Plat,24 h,117.9 x10_4/uL
same,RBC,24 h,613 x10_4/ul
same,Ret,24 h,7.7%
same,WBC,24 h,94.4 x10_2/uL
same,KIDNEY_L,24 h,0.9 g
same,KIDNEY_R,24 h,0.9 g
same,KIDNEY_TOTAL,24 h,1.8 g
same,LIVER,24 h,9.5 g
same,A/G,24 h,0.9
same,ALP,24 h,1929.2 IU/L
same,ALT,24 h,51.2 IU/L
same,AST,24 h,76.2 IU/L
same,BUN,24 h,14.8 mg/dL
same,CRE,24 h,0.2 mg/dL
same,Ca,24 h,11.1 mg/dL
same,Cl,24 h,105.6 meq/L
same,DBIL,24 h,0.022 mg/dL
same,GLC,24 h,189.2 mg/dL
same,IP,24 h,8.5 mg/dL
same,K,24 h,4.3 meq/L
same,LDH,24 h,97.8 IU/L
same,Na,24 h,140.6 meq/L
same,PL,24 h,142 mg/dL
same,RALB,24 h,2.6 g/dL
same,TBIL,24 h,0.032 mg/dL
same,TC,24 h,65.4 mg/dL
same,TG,24 h,141 mg/dL
same,TP,24 h,5.6 g/dL
same,gamma-GTP,24 h,1.4 IU/L
